Data taken from patent publication US3991052A (priority 1975, dated 1976).
In brackets after ≈: the same amount, converted by molar mass.

Tests used:
[1] = system: Staphylococcus aureus 3055; experiment: MIC, standard agar-dilution assay; type: cell-based
[2] = system: Staphylococcus aureus 3074; experiment: MIC, standard agar-dilution assay; type: cell-based
[3] = system: Streptococcus faecalis X66; experiment: MIC, standard agar-dilution assay; type: cell-based; conditions: Enterococcus faecalis
[4] = system: Proteus morganii PR15; experiment: MIC, standard agar-dilution assay; type: cell-based; conditions: Morganella morganii
[5] = system: Salmonella typhosa SA12; experiment: MIC, standard agar-dilution assay; type: cell-based; conditions: Salmonella enterica
[6] = system: Klebsiella pneumoniae KL14; experiment: MIC, standard agar-dilution assay; type: cell-based
[7] = system: Serratia marcescens SE3; experiment: MIC, standard agar-dilution assay; type: cell-based
[8] = system: Escherichia coli EC14; experiment: MIC, standard agar-dilution assay; type: cell-based
[9] = system: Citrobacter freundii MX CF17; experiment: MIC, standard agar-dilution assay; type: cell-based; conditions: MXCF17
[10] = system: Pseudomonas aeruginosa X239; experiment: MIC, standard agar-dilution assay; type: cell-based
[11] = system: Bordetella bronchiseptica 16; experiment: MIC, standard agar-dilution assay; type: cell-based
[12] = system: Salmonella typhimurium; experiment: MIC, standard agar-dilution assay; type: cell-based; conditions: Salmonella enterica
[13] = system: Pseudomonas solanacearum X185; experiment: microbe, parasite or virus in culture; type: cell-based; conditions: Ralstonia solanacearum
[14] = system: Erwinia amylovora; experiment: MIC, standard agar-dilution assay; type: cell-based
[15] = system: Candida tropicalis Z17; experiment: MIC, standard agar-dilution assay; type: cell-based
[16] = system: Trichophyton mentagrophytes 27; experiment: MIC, standard agar-dilution assay; type: cell-based
[17] = system: Aspergillus flavus E; experiment: MIC, standard agar-dilution assay; type: cell-based
[18] = system: Ceratocystis ulmi; experiment: MIC, standard agar-dilution assay; type: cell-based
[19] = system: Cryptococcus neoformans; experiment: MIC, standard agar-dilution assay; type: cell-based
[20] = system: Blastomyces dermatitidis; experiment: MIC, standard agar-dilution assay; type: cell-based
[21] = system: Histoplasma capsulatum; experiment: microbe, parasite or virus in culture; type: cell-based
[22] = system: Candida albicans; experiment: standard disc-diffusion assay; type: cell-based
[23] = toxicity (LD50) in mice, intraperitoneal; conditions: mouse, in vivo, ip, intraperitoneally
[24] = system: C. albicans; experiment: dermal C. albicans infection in rabbits, topical treatment; type: in vivo; conditions: ten days treatment with 1% solution in propylene glycol

COC1c2cc(Cl)c(O)cc2ON2C(=O)C3NC(=O)C12SS3 (stereo not drawn)
MIC [1]: 3.12 µg/mL (≈ 8.65 µM)
MIC [2]: 0.78 µg/mL (≈ 2.16 µM)
MIC [3]: > 100 µg/mL
MIC [4]: > 100 µg/mL
MIC [5]: > 100 µg/mL
MIC [6]: > 100 µg/mL
MIC [7]: > 100 µg/mL
MIC [8]: > 100 µg/mL
MIC [9]: > 100 µg/mL
MIC [10]: > 100 µg/mL
MIC [11]: 50 µg/mL (≈ 139 µM)
MIC [12]: > 100 µg/mL
MIC [13]: > 100 µg/mL
MIC [14]: 6.25 µg/mL (≈ 17.3 µM)
MIC [15]: > 100 µg/mL
MIC [16]: 25 µg/mL (≈ 69.3 µM)
MIC [17]: 25 µg/mL (≈ 69.3 µM)
MIC [18]: 12.5 µg/mL (≈ 34.6 µM)
MIC [19]: < 0.156 µg/mL
MIC [20]: 10 µg/mL (≈ 27.7 µM)
MIC [21]: 10 µg/mL (≈ 27.7 µM)
amount inhibiting Candida albicans [22]: less than 0.312 mcg per disc
LD50 [23]: 106 mg/kg
lesions caused by a dermal C. albicans infection [24]: reduced in severity and size
